{
  "source": "ChEMBL document CHEMBL1127210",
  "about": "“Synthesis of 5-glycosylamino pyrimidines. A new class of compounds with potential anti-aids activity” (Bioorg Med Chem Lett, 1993)",
  "key": {"CCRF-CEM [1]": {"test_system": "CCRF-CEM", "test": "(§1) In vitro inhibitory activity against HIV infected T4 lymphocytes (CEM cell line)", "format": "functional, cell-based", "details": "Homo sapiens"}, "[2]": {"test": "Therapeutic index (IC50/EC50) was determined"}, "CCRF-CEM [3]": {"test_system": "CCRF-CEM", "test": "as §1", "format": "functional, cell-based, Homo sapiens"}, "CCRF-CEM [4]": {"test_system": "CCRF-CEM", "test": "Tested for in vitro anti HIV activity against T4 lymphocytes (CEM cell lines) and effective concentration was reported", "format": "functional, cell-based", "details": "Homo sapiens"}},
  "data": [
    {"smiles": "COc1nc(N)c(NC2O[C@H](CO)[C@@H](O)[C@H]2O)c(=O)n1C", "note": "(some centres undefined)", "values": [
      {"measurement": "EC50", "setting": "CCRF-CEM [1]", "value": 64, "unit": "µM"},
      {"measurement": "selectivity ratio", "setting": "[2]", "value": "> 13"},
      {"measurement": "IC50", "setting": "CCRF-CEM [3]; Homo sapiens, CCRF-CEM", "value": "> 830", "unit": "µM"}
    ]},
    {"smiles": "COc1nc(N[C@H]2OC[C@@H](O)[C@H](O)[C@H]2O)c(NC2O[C@@H](CO)[C@@H](O)[C@@H]2O)c(=O)n1C", "note": "(some centres undefined)", "values": [
      {"measurement": "IC50", "setting": "CCRF-CEM [3]; Homo sapiens, CCRF-CEM", "value": "> 580", "unit": "µM"}
    ]},
    {"smiles": "COc1nc2nc(C(O)C(O)CO)cnc2c(=O)n1C", "note": "(stereo in doubt; 11)", "values": [
      {"measurement": "IC50", "setting": "CCRF-CEM [3]; ccrf-cem", "value": "> 220", "unit": "µM"}
    ]},
    {"smiles": "COc1nc2nc(C(O)C(O)CO)cnc2c(=O)n1C", "note": "(stereo in doubt; 10)", "values": [
      {"measurement": "IC50", "setting": "CCRF-CEM [3]; ccrf-cem", "value": "> 890", "unit": "µM"}
    ]},
    {"smiles": "COc1nc(N)c(NC2O[C@H](CO)[C@H](O)[C@H]2O)c(=O)n1C", "note": "(some centres undefined)", "values": [
      {"measurement": "EC50", "setting": "CCRF-CEM [4]", "value": 140, "unit": "µM"},
      {"measurement": "selectivity ratio", "setting": "[2]", "value": "> 1.6"},
      {"measurement": "IC50", "setting": "CCRF-CEM [3]; Homo sapiens, CCRF-CEM", "value": 220, "unit": "µM"}
    ]}
  ]
}
